According to the NIST ThermoML archive (doi:10.1016/j.fluid.2010.03.010):
Numbers after ± are expanded uncertainties.

Conditions: Liquid, Vibrating tube method

CCOS(=O)(=O)[O-].CCn1cc[n+](C)c1 [1-ethyl-3-methylimidazolium ethyl sulfate]
Conditions	mass density [kg/m3]
342.15 K, 101.33 kPa	1208.29 ± 9.7
343.15 K, 100 kPa	1207.4 ± 9.7
343.15 K, 101.33 kPa	1207.63 ± 9.7
343.15 K, 250 kPa	1207.5 ± 9.7
343.15 K, 500 kPa	1207.6 ± 9.7
343.15 K, 1010 kPa	1207.8 ± 9.7
343.15 K, 1990 kPa	1208.3 ± 9.7
343.15 K, 4990 kPa	1209.6 ± 9.7
343.15 K, 10010 kPa	1211.9 ± 9.7
343.15 K, 14990 kPa	1214.1 ± 9.7
343.15 K, 20010 kPa	1216.3 ± 9.7
343.15 K, 24990 kPa	1218.3 ± 9.8
343.15 K, 30000 kPa	1220.4 ± 9.8
343.15 K, 35010 kPa	1222.4 ± 9.8
343.15 K, 40000 kPa	1224.5 ± 9.8
343.15 K, 45000 kPa	1226.4 ± 9.8
343.15 K, 50000 kPa	1228.4 ± 9.9
343.15 K, 54990 kPa	1230.3 ± 9.9
343.15 K, 60000 kPa	1232.2 ± 9.9
344.15 K, 101.33 kPa	1206.97 ± 9.7
345.15 K, 101.33 kPa	1206.32 ± 9.7
346.15 K, 101.33 kPa	1205.66 ± 9.7
347.15 K, 101.33 kPa	1205.01 ± 9.7
348.15 K, 101.33 kPa	1204.36 ± 9.6
349.15 K, 101.33 kPa	1203.7 ± 9.6
350.15 K, 101.33 kPa	1203.05 ± 9.6
351.15 K, 101.33 kPa	1202.4 ± 9.6
352.15 K, 101.33 kPa	1201.75 ± 9.6
353.15 K, 100 kPa	1200.9 ± 9.6
353.15 K, 101.33 kPa	1201.09 ± 9.6
353.15 K, 250 kPa	1200.9 ± 9.6
353.15 K, 500 kPa	1201 ± 9.6
353.15 K, 1010 kPa	1201.3 ± 9.6
353.15 K, 2000 kPa	1201.8 ± 9.6
353.15 K, 4990 kPa	1203.1 ± 9.6
353.15 K, 10010 kPa	1205.5 ± 9.7
353.15 K, 15000 kPa	1207.6 ± 9.7
353.15 K, 20000 kPa	1209.9 ± 9.7
353.15 K, 24990 kPa	1212 ± 9.7
353.15 K, 30010 kPa	1214.2 ± 9.7
353.15 K, 34990 kPa	1216.2 ± 9.8
353.15 K, 40000 kPa	1218.3 ± 9.8
353.15 K, 45000 kPa	1220.2 ± 9.8
353.15 K, 50000 kPa	1222.3 ± 9.8
353.15 K, 54990 kPa	1224.2 ± 9.8
353.15 K, 60000 kPa	1226.1 ± 9.8
354.15 K, 101.33 kPa	1200.44 ± 9.6
355.15 K, 101.33 kPa	1199.79 ± 9.6
356.15 K, 101.33 kPa	1199.14 ± 9.6
357.15 K, 101.33 kPa	1198.49 ± 9.6
358.15 K, 101.33 kPa	1197.84 ± 9.6
359.15 K, 101.33 kPa	1197.2 ± 9.6
360.15 K, 101.33 kPa	1196.55 ± 9.6
361.15 K, 101.33 kPa	1195.9 ± 9.6
362.15 K, 101.33 kPa	1195.26 ± 9.6
363.15 K, 100 kPa	1194.3 ± 9.6
363.15 K, 101.33 kPa	1194.61 ± 9.6
363.15 K, 250 kPa	1194.4 ± 9.6
363.15 K, 500 kPa	1194.5 ± 9.6
363.15 K, 1000 kPa	1194.7 ± 9.6
363.15 K, 2000 kPa	1195.2 ± 9.6
363.15 K, 4990 kPa	1196.6 ± 9.6
363.15 K, 10010 kPa	1199 ± 9.6
363.15 K, 14990 kPa	1201.3 ± 9.6
363.15 K, 19990 kPa	1203.6 ± 9.6
363.15 K, 25000 kPa	1205.7 ± 9.7
363.15 K, 30000 kPa	1207.9 ± 9.7
363.15 K, 34990 kPa	1210 ± 9.7
363.15 K, 40000 kPa	1212.2 ± 9.7
363.15 K, 45000 kPa	1214.2 ± 9.7
363.15 K, 50000 kPa	1216.2 ± 9.8
363.15 K, 55000 kPa	1218.2 ± 9.8
363.15 K, 60000 kPa	1220.2 ± 9.8
373.15 K, 100 kPa	1187.8 ± 9.5
373.15 K, 250 kPa	1187.9 ± 9.5
373.15 K, 500 kPa	1188 ± 9.5
373.15 K, 1010 kPa	1188.2 ± 9.5
373.15 K, 2000 kPa	1188.7 ± 9.5
373.15 K, 4990 kPa	1190.2 ± 9.5
373.15 K, 10010 kPa	1192.6 ± 9.6
373.15 K, 14990 kPa	1194.9 ± 9.6
373.15 K, 20010 kPa	1197.3 ± 9.6
373.15 K, 25000 kPa	1199.5 ± 9.6
373.15 K, 30010 kPa	1201.7 ± 9.6
373.15 K, 34990 kPa	1203.9 ± 9.7
373.15 K, 40000 kPa	1206.1 ± 9.7
373.15 K, 45000 kPa	1208.1 ± 9.7
373.15 K, 50000 kPa	1210.2 ± 9.7
373.15 K, 54990 kPa	1212.3 ± 9.7
373.15 K, 60000 kPa	1214.3 ± 9.8
393.15 K, 100 kPa	1174.8 ± 9.4
393.15 K, 250 kPa	1174.9 ± 9.4
393.15 K, 500 kPa	1175 ± 9.4
393.15 K, 1010 kPa	1175.3 ± 9.4
393.15 K, 2000 kPa	1175.8 ± 9.4
393.15 K, 4990 kPa	1177.3 ± 9.4
393.15 K, 10000 kPa	1179.9 ± 9.4
393.15 K, 15000 kPa	1182.3 ± 9.5
393.15 K, 20010 kPa	1184.8 ± 9.5
393.15 K, 24990 kPa	1187.1 ± 9.5
393.15 K, 30010 kPa	1189.5 ± 9.5
393.15 K, 34990 kPa	1191.7 ± 9.6
393.15 K, 40000 kPa	1194 ± 9.6
393.15 K, 45010 kPa	1196.2 ± 9.6
393.15 K, 50000 kPa	1198.4 ± 9.6
393.15 K, 55000 kPa	1200.5 ± 9.6
393.15 K, 60000 kPa	1202.6 ± 9.7
413.15 K, 100 kPa	1161.7 ± 9.3
413.15 K, 250 kPa	1161.8 ± 9.3
413.15 K, 500 kPa	1162 ± 9.3
413.15 K, 1010 kPa	1162.2 ± 9.3
413.15 K, 2000 kPa	1162.8 ± 9.3
413.15 K, 4990 kPa	1164.4 ± 9.3
413.15 K, 10000 kPa	1167.2 ± 9.3
413.15 K, 14990 kPa	1169.7 ± 9.4
413.15 K, 20010 kPa	1172.4 ± 9.4
413.15 K, 24990 kPa	1174.8 ± 9.4
413.15 K, 30000 kPa	1177.4 ± 9.4
413.15 K, 34990 kPa	1179.7 ± 9.5
413.15 K, 40000 kPa	1182.1 ± 9.5
413.15 K, 45000 kPa	1184.4 ± 9.5
413.15 K, 50000 kPa	1186.7 ± 9.5
413.15 K, 54990 kPa	1188.9 ± 9.5
413.15 K, 60000 kPa	1191.1 ± 9.6
433.15 K, 100 kPa	1148.6 ± 9.2
433.15 K, 250 kPa	1148.7 ± 9.2
433.15 K, 500 kPa	1148.8 ± 9.2
433.15 K, 1010 kPa	1149.1 ± 9.2
433.15 K, 2000 kPa	1149.7 ± 9.2
433.15 K, 4990 kPa	1151.4 ± 9.2
433.15 K, 10010 kPa	1154.4 ± 9.2
433.15 K, 14990 kPa	1157.1 ± 9.3
433.15 K, 20010 kPa	1159.9 ± 9.3
433.15 K, 24990 kPa	1162.5 ± 9.3
433.15 K, 30010 kPa	1165.2 ± 9.3
433.15 K, 34990 kPa	1167.6 ± 9.4
433.15 K, 40000 kPa	1170.2 ± 9.4
433.15 K, 45010 kPa	1172.6 ± 9.4
433.15 K, 50000 kPa	1175.1 ± 9.4
433.15 K, 54990 kPa	1177.4 ± 9.4
433.15 K, 60000 kPa	1179.7 ± 9.5
